Data published in ChEMBL document CHEMBL1143429, “One-pot synthesis and antibacterial activities of pyrazolo[4',3':5,6]pyrido[2,3-d]pyrimidine-dione derivatives” (2008).
In brackets after ≈: the same amount, converted by molar mass. Activity calls are given as the source filed them. No cut-off for these calls is given here.

Columns and labels:
Type in all cases: functional
Streptococcus mutans = test: Antibacterial activity against Streptococcus mutans PTCC 1601 by microdilution method
[1] = tested on: Staphylococcus epidermidis; test: Antibacterial activity against Staphylococcus epidermidis ATCC 12228 by microdilution method
Pseudomonas aeruginosa = test: Antibacterial activity against Pseudomonas aeruginosa ATCC 85327 by microdilution method
Bacillus subtilis = test: Antibacterial activity against Bacillus subtilis ATCC 465 by microdilution method
Micrococcus luteus = test: Antibacterial activity against Micrococcus luteus PTCC 1110 by microdilution method
Bacillus pumilus = test: Antibacterial activity against Bacillus pumilus PTCC 1114 by microdilution method
Enterococcus faecalis = test: Antibacterial activity against Enterococcus faecalis ATCC 29737 by microdilution method
Staphylococcus aureus = test: Antibacterial activity against Staphylococcus aureus ATCC 25923 by microdilution method
Escherichia coli = test: Antibacterial activity against Escherichia coli ATCC 25922 by microdilution method

Molecule	MIC (Streptococcus mutans)	MIC [1]	MIC (Pseudomonas aeruginosa)	MIC (Bacillus subtilis)	MIC (Micrococcus luteus)	MIC (Bacillus pumilus)	MIC (Enterococcus faecalis)	MIC (Staphylococcus aureus)	MIC (Escherichia coli)	Activity (Streptococcus mutans)	Activity [1]	Activity (Bacillus subtilis)	Activity (Micrococcus luteus)	Activity (Bacillus pumilus)	Activity (Enterococcus faecalis)	Activity (Staphylococcus aureus)	Activity (Pseudomonas aeruginosa)	Activity (Escherichia coli)
O=c1[nH]c(=S)[nH]c2c1C(c1ccc([N+](=O)[O-])cc1)c1c(-c3ccccc3)nn(-c3ccc([N+](=O)[O-])cc3)c1N2 (configuration not stated)	8 µg/mL (≈ 14.8 µM)	8 µg/mL (≈ 14.8 µM)	14 µg/mL (≈ 25.9 µM)	4 µg/mL (≈ 7.41 µM)	4 µg/mL (≈ 7.41 µM)	4 µg/mL (≈ 7.41 µM)	10 µg/mL (≈ 18.5 µM)	6 µg/mL (≈ 11.1 µM)	6 µg/mL (≈ 11.1 µM)									
O=c1[nH]c(=S)[nH]c2c1C(c1ccccc1)c1c(-c3ccccc3)nn(-c3ccccc3)c1N2 (configuration not stated)	< 2 µg/mL	4 µg/mL (≈ 8.9 µM)	32 µg/mL (≈ 71.2 µM)	4 µg/mL (≈ 8.9 µM)	8 µg/mL (≈ 17.8 µM)	4 µg/mL (≈ 8.9 µM)	4 µg/mL (≈ 8.9 µM)	8 µg/mL (≈ 17.8 µM)	4 µg/mL (≈ 8.9 µM)									
Cc1ccc(C2c3c(-c4ccccc4)nn(-c4ccccc4)c3Nc3[nH]c(=O)[nH]c(=O)c32)cc1 (configuration not stated)	< 2 µg/mL	2 µg/mL (≈ 4.47 µM)	2 µg/mL (≈ 4.47 µM)	2 µg/mL (≈ 4.47 µM)	< 2 µg/mL	2 µg/mL (≈ 4.47 µM)	2 µg/mL (≈ 4.47 µM)	2 µg/mL (≈ 4.47 µM)	< 2 µg/mL									
GENTAMICIN			8 µg/mL						4 µg/mL	inactive	inactive	inactive	inactive	inactive	inactive	inactive		
O=c1[nH]c(=S)[nH]c2c1C(c1ccc([N+](=O)[O-])cc1)c1c(-c3ccccc3)nn(-c3ccccc3)c1N2 (configuration not stated)	6 µg/mL (≈ 12.1 µM)	8 µg/mL (≈ 16.2 µM)	12 µg/mL (≈ 24.3 µM)	4 µg/mL (≈ 8.09 µM)	3 µg/mL (≈ 6.07 µM)	4 µg/mL (≈ 8.09 µM)	14 µg/mL (≈ 28.3 µM)	4 µg/mL (≈ 8.09 µM)	6 µg/mL (≈ 12.1 µM)									
O=c1[nH]c2c(c(=O)[nH]1)C(c1cccc([N+](=O)[O-])c1)c1c(-c3ccccc3)nn(-c3ccc([N+](=O)[O-])cc3)c1N2 (configuration not stated)	< 2 µg/mL	26 µg/mL (≈ 49.7 µM)	30 µg/mL (≈ 57.3 µM)	6 µg/mL (≈ 11.5 µM)	2 µg/mL (≈ 3.82 µM)	4 µg/mL (≈ 7.64 µM)	2 µg/mL (≈ 3.82 µM)	2 µg/mL (≈ 3.82 µM)	6 µg/mL (≈ 11.5 µM)									
O=c1[nH]c2c(c(=O)[nH]1)C(c1ccccc1)c1c(-c3ccccc3)nn(-c3ccc([N+](=O)[O-])cc3)c1N2 (configuration not stated)	< 2 µg/mL	18 µg/mL (≈ 37.6 µM)	20 µg/mL (≈ 41.8 µM)	6 µg/mL (≈ 12.5 µM)	2 µg/mL (≈ 4.18 µM)	4 µg/mL (≈ 8.36 µM)	4 µg/mL (≈ 8.36 µM)	4 µg/mL (≈ 8.36 µM)	4 µg/mL (≈ 8.36 µM)									
O=c1[nH]c2c(c(=O)[nH]1)C(c1ccc(Br)cc1)c1c(-c3ccccc3)nn(-c3ccc([N+](=O)[O-])cc3)c1N2 (configuration not stated)	< 2 µg/mL	32 µg/mL (≈ 57.4 µM)	32 µg/mL (≈ 57.4 µM)	8 µg/mL (≈ 14.4 µM)	2 µg/mL (≈ 3.59 µM)	4 µg/mL (≈ 7.18 µM)	4 µg/mL (≈ 7.18 µM)	4 µg/mL (≈ 7.18 µM)	4 µg/mL (≈ 7.18 µM)									
O=c1[nH]c(=S)[nH]c2c1C(c1ccc(Cl)cc1)c1c(-c3ccccc3)nn(-c3ccccc3)c1N2 (configuration not stated)	8 µg/mL (≈ 16.5 µM)	8 µg/mL (≈ 16.5 µM)	16 µg/mL (≈ 33.1 µM)	4 µg/mL (≈ 8.26 µM)	4 µg/mL (≈ 8.26 µM)	4 µg/mL (≈ 8.26 µM)	16 µg/mL (≈ 33.1 µM)	4 µg/mL (≈ 8.26 µM)	4 µg/mL (≈ 8.26 µM)									
O=c1[nH]c(=S)[nH]c2c1C(c1ccccc1)c1c(-c3ccccc3)nn(-c3ccc([N+](=O)[O-])cc3)c1N2 (configuration not stated)	8 µg/mL (≈ 16.2 µM)	7 µg/mL (≈ 14.2 µM)	14 µg/mL (≈ 28.3 µM)	3 µg/mL (≈ 6.07 µM)	4 µg/mL (≈ 8.09 µM)	4 µg/mL (≈ 8.09 µM)	13 µg/mL (≈ 26.3 µM)	3 µg/mL (≈ 6.07 µM)	5 µg/mL (≈ 10.1 µM)									
O=c1[nH]c2c(c(=O)[nH]1)C(c1ccccc1)c1c(-c3ccccc3)nn(-c3ccccc3)c1N2 (configuration not stated)	< 2 µg/mL	2 µg/mL (≈ 4.61 µM)	2 µg/mL (≈ 4.61 µM)	2 µg/mL (≈ 4.61 µM)	< 2 µg/mL	< 2 µg/mL	2 µg/mL (≈ 4.61 µM)	2 µg/mL (≈ 4.61 µM)	< 2 µg/mL									
O=c1[nH]c2c(c(=O)[nH]1)C(c1ccc(Cl)cc1)c1c(-c3ccccc3)nn(-c3ccc([N+](=O)[O-])cc3)c1N2 (configuration not stated)	< 2 µg/mL	28 µg/mL (≈ 54.6 µM)	28 µg/mL (≈ 54.6 µM)	8 µg/mL (≈ 15.6 µM)	4 µg/mL (≈ 7.8 µM)	6 µg/mL (≈ 11.7 µM)	2 µg/mL (≈ 3.9 µM)	4 µg/mL (≈ 7.8 µM)	6 µg/mL (≈ 11.7 µM)									
Cc1ccc(C2c3c(-c4ccccc4)nn(-c4ccc([N+](=O)[O-])cc4)c3Nc3[nH]c(=O)[nH]c(=O)c32)cc1 (configuration not stated)	< 2 µg/mL	24 µg/mL (≈ 48.7 µM)	28 µg/mL (≈ 56.9 µM)	6 µg/mL (≈ 12.2 µM)	2 µg/mL (≈ 4.06 µM)	6 µg/mL (≈ 12.2 µM)	2 µg/mL (≈ 4.06 µM)	2 µg/mL (≈ 4.06 µM)	4 µg/mL (≈ 8.12 µM)									
CN(C)[C@@H]1C(O)=C(C(N)=O)C(=O)[C@@]2(O)C(O)=C3C(=O)c4c(O)cccc4[C@@](C)(O)[C@H]3C[C@@H]12 [TETRACYCLINE]	2 µg/mL (≈ 4.5 µM)	< 2 µg/mL		4 µg/mL (≈ 9 µM)	4 µg/mL (≈ 9 µM)	8 µg/mL (≈ 18 µM)	8 µg/mL (≈ 18 µM)	4 µg/mL (≈ 9 µM)									inactive	inactive
O=c1[nH]c2c(c(=O)[nH]1)C(c1ccc(Br)cc1)c1c(-c3ccccc3)nn(-c3ccccc3)c1N2 (configuration not stated)	< 2 µg/mL	2 µg/mL (≈ 3.9 µM)	2 µg/mL (≈ 3.9 µM)	2 µg/mL (≈ 3.9 µM)	2 µg/mL (≈ 3.9 µM)	2 µg/mL (≈ 3.9 µM)	30 µg/mL (≈ 58.6 µM)	58 µg/mL (≈ 113 µM)	< 2 µg/mL									
O=c1[nH]c(=S)[nH]c2c1C(c1ccc(Cl)cc1)c1c(-c3ccccc3)nn(-c3ccc([N+](=O)[O-])cc3)c1N2 (configuration not stated)	8 µg/mL (≈ 15.1 µM)	6 µg/mL (≈ 11.3 µM)	16 µg/mL (≈ 30.2 µM)	4 µg/mL (≈ 7.56 µM)	3 µg/mL (≈ 5.67 µM)	4 µg/mL (≈ 7.56 µM)	12 µg/mL (≈ 22.7 µM)	6 µg/mL (≈ 11.3 µM)	6 µg/mL (≈ 11.3 µM)									
O=c1[nH]c2c(c(=O)[nH]1)C(c1ccc(Cl)cc1)c1c(-c3ccccc3)nn(-c3ccccc3)c1N2 (configuration not stated)	< 2 µg/mL	4 µg/mL (≈ 8.55 µM)	2 µg/mL (≈ 4.27 µM)	4 µg/mL (≈ 8.55 µM)	< 2 µg/mL	2 µg/mL (≈ 4.27 µM)	32 µg/mL (≈ 68.4 µM)	64 µg/mL (≈ 137 µM)	< 2 µg/mL									
O=c1[nH]c2c(c(=O)[nH]1)C(c1cccc([N+](=O)[O-])c1)c1c(-c3ccccc3)nn(-c3ccccc3)c1N2 (configuration not stated)	< 2 µg/mL	2 µg/mL (≈ 4.18 µM)	2 µg/mL (≈ 4.18 µM)	2 µg/mL (≈ 4.18 µM)	2 µg/mL (≈ 4.18 µM)	2 µg/mL (≈ 4.18 µM)	2 µg/mL (≈ 4.18 µM)	2 µg/mL (≈ 4.18 µM)	< 2 µg/mL									
